Measurements: PubChem BioAssay AID463204 (Broad Institute, 2010)
The source made the active and inactive calls.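 How the source made its calls: active means AC50 no more than ten times the top concentration tested, that is within one log above it; inconclusive means flat curve fit with activity between 30% and 70%, or invalid poor fit; inactive means AC50 beyond ten times the top tested dose.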

tested on: S. cerevisiae Mot1-301 ts growth rescue, BacTiter-Glo ATP luminescence; assay: restored Mot1-301 yeast growth at 38.5C – whole organism, S. cerevisiae, Mot1-301 ts mutant, luminescence, dose retest, SUMOylation pathway inhibitor project, confirmation (AID 463204);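 further: growth at restrictive 38.5 degrees C of Mot1-301 OY566 strain; actives raise luminescence by restoring growth of the ts mutant at high temperature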

Structure (SMILES) | AC50
CN(C)CC/C=C1/c2cc(F)ccc2Sc2ccc(Cl)cc21 | > 42 µM (inactive)
CCC1(CC)NC(=O)N(CC(=O)N2N=C(c3ccc(Cl)cc3)CC2c2ccco2)C1=O (stereo not given) | > 42 µM (inactive)
CC1(C)CC(=O)C2=C(C1)Oc1ncn(CCO)c(=N)c1C2c1ccccc1 (stereo not given) | > 42 µM (inactive)
COc1ccc2[nH]c(=O)c(CN(C(=O)c3ccccn3)c3ccccc3)cc2c1 | > 42 µM (inactive)
CN(C)C(/C=C/Nc1cccc(Br)c1)=C(C#N)C#N | > 42 µM (inactive)
Cc1cc(C)c[n+](-c2nc3ccccc3nc2[N-]S(=O)(=O)c2ccc(Br)s2)c1 | > 42 µM (inactive)
COc1cccc(OC)c1C(=O)N1CCN(Cc2ccccc2C)CC1 | > 42 µM (inactive)
O=c1oc2cc(S(=O)(=O)NCCCO)ccc2c2ccc(S(=O)(=O)NCCCO)cc12 | > 42 µM (inactive)
O=C(CSc1nc2ncccc2[nH]1)NC1CCCCC1 | > 42 µM (inactive)
C/C(=N\N=C(c1ccccc1)c1ccccc1)c1ccco1 | > 42 µM (inactive)
CCC(C)NCCCCOc1cc(C)cc(C(C)C)c1 (stereo not given) | > 42 µM (inactive)
CCCOc1ccc([N+](=O)[O-])c(N)c1 | > 42 µM (inactive)
O=C(O)C1CCCCC1C(=O)Nc1ccc(S(=O)(=O)N2CCCC2)cc1 (stereo not given) | > 42 µM (inactive)
CCOCCCNC(=O)C(c1ccc(OC)cc1)N(Cc1ccc2c(c1)OCO2)C(=O)CNC(C)=O (stereo not given) | > 42 µM (inactive)
Cc1nc(N)c(Cc2ccccc2F)c(N)n1 | > 42 µM (inactive)
Nc1nc(SCc2nc3scc(-c4cccs4)c3c(=O)[nH]2)n[nH]1 | > 42 µM (inactive)
COc1cccc(/C=N/n2cnc3ccccc32)c1OC | > 42 µM (inactive)
C=CCNC(=O)NC(=O)COC(=O)/C(C#N)=C/c1cc(C)n(CC(C)C)c1C | > 42 µM (inactive)
CCc1ccc(-n2c(Cc3ccccc3)n[nH]c2=S)cc1 | > 42 µM (inactive)
Cc1cc(C)cc(OCC(=O)NC2CCCc3ccccc32)c1 (stereo not given) | > 42 µM (inactive)

Structure (SMILES) | AC50
Cc1ccccc1-n1c(-c2cccnc2)n[nH]c1=S | > 42 µM (inactive)
O=Cc1cn(Cc2ccccc2F)c2ccccc12 | > 42 µM (inactive)
CC(=O)N1CC(=O)Nc2ccc(Cl)cc2C1c1ccccc1 (stereo not given) | > 42 µM (inactive)
COC(=O)[C@@H]1[C@@H](C(=O)OC)C2(c3ccccc3-c3ccccc32)N(c2ccc(Cl)cc2)N1C#N | 1.72 µM
Cc1cccc(N2C(=O)CSC2c2cccnc2)c1 (stereo not given) | > 42 µM (inactive)
COc1ccc(-n2nc(C(=O)NCC(=O)N3CCCC3)c3ccccc3c2=O)c(OC)c1 | > 42 µM (inactive)
Cc1cc(C)c(S(=O)(=O)NCC(c2cccnc2)N2CCN(Cc3ccccc3)CC2)c(C)c1 (stereo not given) | > 42 µM (inactive)
Oc1c(Br)cc(Br)cc1/C=N/N1CCN(Cc2ccccc2)CC1 | 1.78 µM
CCCCOc1ccc(C(=O)Nc2ccc(N3CCN(C)CC3)cc2)cc1 | > 42 µM (inactive)
Cc1cc(C(=O)OCC(=O)Nc2cccc(S(N)(=O)=O)c2)c2ccccc2n1 | > 42 µM (inactive)
Cc1cccc(-[n+]2c(-c3cccc(Br)c3)[nH]c3nc4ccccc4nc32)c1 | > 42 µM (inactive)
NC1=NC2(CCCC2)N=C(Nc2ccccc2)N1 | > 42 µM (inactive)
CN(CC(=O)Nc1sccc1C#N)Cc1ccccc1 | > 42 µM (inactive)
CNS(=O)(=O)c1cccc(C(=O)NCC2(N3CCCCC3)CCCCC2)c1 | 39.2 µM
N#Cc1cccc(NC(=O)CSc2n[nH]c(=O)[nH]c2=O)c1 | > 42 µM (inactive)
O=C(Cc1ccc(Cl)cc1)NC(=S)Nc1ccccc1N1CCOCC1 | > 42 µM (inactive)
CCN1C(=NCc2cccc(Cl)c2)N[C@@H](c2cccc(F)c2)C(C(=O)OC)=C1C | > 42 µM (inactive)
COc1ccc(N=Cc2c(O)n(C)c(=O)[nH]c2=O)cc1 | > 42 µM (inactive)
COc1ccccc1OCCSc1nc2ccccc2n1CCC(=O)O | > 42 µM (inactive)
COc1ccccc1-c1nc2ccccc2nc1-c1ccccc1OC | > 42 µM (inactive)
